According to US8142812B2, “Chemical carrier based on a beta-limit dextrin” (Glycologic Limited, priority 2002, dated 2012):

Assay: Drug interaction and stability with β-limit dextrin in solution
Format: physicochemical
Source text: There are many potential applications with respect to dispersing and solubilising insoluble compounds. […] Drug interaction and stability with β-limit dextrin in solution

[1] = drug 1% in β-limit dextrin (5%)
[2] = drug 1% in β-limit dextrin (10%)

Drug interaction and stability in solution (drug 1% in Water)	Drug interaction and stability in solution [1]	Drug interaction and stability in solution [2]	SMILES
Dissolved	Dissolved	Dissolved	O=C1O[C@H]([C@@H](O)CO)C(O)=C1O [Ascorbic acid]
Not suspended	Suspended	Suspended	CC(=O)Oc1ccccc1C(=O)O [Aspirin]
Not suspended	Suspended	Suspended	Cn1c(=O)c2[nH]cnc2n(C)c1=O [Theophylline]
